Measurements taken from patent US8361970B2, “Growth factor binding molecules” (University of South Florida, priority 2000, dated 2013).
Where “and” joins values, the source holds several entries; their conditions need not be identical. Identical values can stand only once. Like-named read-outs stand apart in the source and are kept apart here.

Key:
[1] = system: VEGF-stimulated MAP kinase activation; experiment: Inhibition of VEGF-stimulated MAP kinase (p42/p44, Erk2/Erk1) activation in Flk-1/3T3 cells; type: cell-based; conditions: for IC50: Flk-1/3T3, VEGF stimulated
Description: (§1) Starved NIII 3T3 cells (PDGF-BB and PDGF-AA), NIH 3T3 cells overexpressing either EGFR (EGF) or Flk-1 (VEGF) are pre-treated with the indicated concentrations of GFB-111 for 5 minutes before 10 minutes of stimulation with PDGF-BB (10 ng/ml), PDGF-AA (10 ng/ml), EGF (100 ng/ml) and VEGF (50 ng/ml). Cell lysates are run on SDS-PAGE gels, then transferred to nitrocellulose and Western blotted with anti-phosphotyrosine (4G 10) or anti-phosphorylated Erk1/Erk2 (New England Biolabs).
(§2) In other experiments, starved NIH 3T3 cells (PDGF-AA, PDGF-BB, aFGF, bFGF), NIH 3T3 cells overexpressing EGFR. IGF-1R or Flk-1 and the human breast carcinoma SkBr3 that overexpresses ErbB2 (HRGβ) are pretreated with GFB-111 (100 μM) for 5 min before 10 min stimulation with the indicated growth factors at the concentrations shown above and aFGF (10 ng/ml), bFGF (50 ng/ml), IGF-1 (50 ng/ml) and HRGβ (10 ng/ml). Cell lysates are then immunoblotted with anti-phospho Erk1/Erk2 as described above.
(§3) In order to identify molecules that would bind vascular endothelial growth factor (VEGF), Flk-1/3T3 cell-based assay is used that relies on VEGF-stimulation of its receptor, Flk-1, tyrosine phosphorylation and subsequent MAP-kinase activation. The assay used herein identical to that used for PDGF, except that NIH 3T3 cells that overexpress Flk-1 are used. GFB-116, which has four identical loops with the sequence GKGK (SEQ ID NO. 10) is shown to be very potent and selective toward blocking the ability of VEGF to stimulate Flk-1 tyrosine phosphorylation and subsequent MAP-kinase activation as measured by phospho erk-1 and erk-2 also referred to in the Table as p42 and p44 (Table 4A). A preferred embodiment of the invention is a compound that binds to a vascular endothelial growth factor, of the general structure III (above) in which R is n-butyl, n-propyl, or benzyl, and X comprise covalently attached identical cyclic peptide loops wherein R1, R2, R3, and R4 are each amino acid side chains, as broadly defined above, that define a tetrapeptide sequence, wherein said tetrapeptide is covalently attached at the amino and carboxy termini of said tetrapeptide to 3-aminomethyl-5-aminobenzamide linking group, and wherein said tetrapeptide sequence is GKGK (SEQ ID NO. 10), GDGY (SEQ ID NO. 6), or functionally related derivatives thereof.

[2] = system: IGF-1 stimulated MAP kinase activation; experiment: Inhibition of IGF-1 stimulated MAP kinase (p42/p44) activation in IGFR/3T3 cells; type: cell-based
Description: as §2
The ability of the GFB library to block the ability of IGF-1 to stimulate the IFG-1 R tyrosine phosphorylation and MAP kinase activation is evaluated using the cell assay described above with IGF-1R/3T3 cells as target cell. […] A preferred embodiment of the invention is a compound that binds to an insulin-like growth factor-1, of the general structure III, wherein R is n-butyl, n-propyl, or benzyl, and X1, X2, X3, and X4 optionally comprise identical cyclic peptide loops of the general structure II, and wherein R1, R2, R3, and R4 are each amino acid side chains that define a tetrapeptide sequence, wherein said tetrapeptide is covalently attached at the amino and carboxy termini of said tetrapeptide to a 3-aminomethyl-5-aminobenzamide linking group.

[3] = system: aFGF-stimulated MAP kinase activation of p42 and p44; experiment: Inhibition of aFGF stimulation of p42/p44 MAP kinase in NIH 3T3 cells; type: cell-based
Description: as §2
The ability of growth factor binding agents in the library of growth factor binding agents to block an aFGF signal is measured by aFGF-stimulation of MAP kinase activation of p42 and p44 essentially as described above for VEGF. NIH 3T3 cells are used as the target cell. […] A preferred embodiment of the invention is a compound that binds to acidic fibroblast growth factor, of the general structure III, in which R is n-butyl, n-propyl, or benzyl, and X1, X2, X3, and X4 optionally comprise covalently attached cyclic peptide loops of the general structure II, wherein R1, R2, R3, and R4 are each amino acid side chains that define a tetrapeptide sequence, wherein said tetrapeptide is covalently attached at the amino and carboxy termini of said tetrapeptide to a 3-aminomethyl-5-aminobenzamide linking group, and wherein said tetrapeptide sequence is as given, for example, in Table 5.

[4] = system: angiogenesis in A-549 tumors; experiment: Angiogenesis: Factor VIII immunostaining and microvessel count in A-549 tumors; type: in vivo, nude mice; conditions: for Microvessel count (Mean ± SD) 250X / Microvessel count (Mean ± SD) 400X: A-549 tumor
Description: On the indicated termination day of each nude mouse experiment described above, (see also Table 2), the tumors are extracted and half frozen at −70° C., and half is fixed in 10% neutral buffered formalin for 6 hrs. After fixation the tissue samples are processed into paraffin blocks. Four micrometer-thick tissue sections are obtained from the paraffin blocks and stained with hematoxylin and eosin (H&E) (Richard-Allan Scientific, Kalamazoo, Mich.) using standard histologic techniques. Tissue sections are also subjected to immunostaining for Factor VIII using the avidin biotin peroxidase complex technique (Vectastatin Elite ABC Kit, Vector, Burlingame, Calif.). Rabbit polyclonal FVIII antibody (Von Willebrand Factor, Dako Corporation, Carpinteria, Calif.) is used at 1:400 dilution, following microwave antigen retrieval (4 cycles of 5 minutes each on high in 0.1M citrate buffer).

[5] = system: VEGF-stimulated Flk-1 tyrosine phosphorylation; experiment: Inhibition of VEGF-stimulated Flk-1 tyrosine phosphorylation in Flk-1/3T3 cells; type: cell-based
Description: as §1, §3

[6] = read-out: (IC50) Inhibition p42
[7] = read-out: (IC50) Inhibition p44
[8] = 100 μM, IGFR/3T3, IGF-1 stimulated
[9] = concentrations as high as 100 μM
[10] = Flk-1/3T3, VEGF stimulated, read-out: (IC50) Inhibition Flk-1-Y-P

Molecule	IC50 [1, 6] [µM]	IC50 [1, 7] [µM]	% Inhibition at 100 μM p42 [2, 8] [%]	% Inhibition at 100 μM p44 [2, 8]	IGF-1-activation of Erk1/Erk2 [2, 9]	aFGF-activation of Erk1/Erk2 [3, 9]	Microvessel count (Mean ± SD) 250X ([4]; 50 mpk, 50 mg/kg)	Microvessel count (Mean ± SD) 400X ([4]; 50 mpk, 50 mg/kg)	Inhibition of angiogenesis ([4]; A-549 tumors)	IC50 [5, 10] [µM]	IC50 ([5]; read-out: IC50 VEGF-stimulated Flk-1 tyrosine phosphorylation and MAPK activation) [µM]	Block of VEGF-activation of the MAPKinases Erk1 and Erk2 ([1]; FIG. 13)	Block of aFGF-stimulation of MAP kinase activation of p42 and p44 ([3]; NIH 3T3)	Microvessel count (Mean ± SD) 250X ([4]; 50 mpk)	Microvessel count (Mean ± SD) 400X ([4]; 50 mpk)	Inhibition of angiogenesis by microvessel counting ([4]; A-549 tumors, 50 mpk) [%]
CCCCOc1c2cc(C(=O)Nc3cc4cc(c3)C(=O)NCC(=O)N[C@@H](CC(=O)O)C(=O)NCC(=O)N[C@@H](Cc3ccc(O)cc3)C(=O)NC4)cc1Cc1cc(C(=O)Nc3cc4cc(c3)C(=O)NCC(=O)N[C@@H](CC(=O)O)C(=O)NCC(=O)N[C@@H](Cc3ccc(O)cc3)C(=O)NC4)cc(c1OCCCC)Cc1cc(C(=O)Nc3cc4cc(c3)C(=O)NCC(=O)N[C@@H](CC(=O)O)C(=O)NCC(=O)N[C@@H](Cc3ccc(O)cc3)C(=O)NC4)cc(c1OCCCC)Cc1cc(C(=O)Nc3cc4cc(c3)C(=O)NCC(=O)N[C@@H](CC(=O)O)C(=O)NCC(=O)N[C@@H](Cc3ccc(O)cc3)C(=O)NC4)cc(c1OCCCC)C2 [GFB-111]	10	10	−18.4	10.7%	minimally affected	minimally affected	3.63 ± 1.36 and 5.68 ± 1.74	2.34 ± 1.01 and 3.58 ± 1.01	strongly	5	10					
GKGK [GFB-116]	5	5		25.2% and 43.5%					efficacious	0.3		block	very effective	5.56 ± 1.75	3.46 ± 1.19	70
